Assay results from US10947188B2, “Small molecule ferroptosis inducers” (THE TRUSTEES OF COLUMBIA UNIVERSITY IN THE CITY OF NEW YORK, priority 2016, dated 2021).

Columns and labels:
BJeLR = experiment: Modulatory profiling: Alamar Blue viability, lethal compound cotreated with death modulator (EC50, AUC); format: cell-based, human; parameters: AUC, modulator BJ.Gd3+ / AUC, modulator BJ.LNAME / AUC, modulator BJ.Lmin / AUC, modulator BJ.3MA / AUC, modulator BJ.ALLN / AUC, modulator BJ.Boc D / AUC, modulator BJ.CHX / AUC, modulator BJ.Co2+ / AUC, modulator BJ.Nec-1 / AUC, modulator BJ.Pepstatin / AUC, modulator BJ.TLCK / AUC, modulator BJ.atoc / AUC, modulator BJ.trolox / AUC, modulator BJ.zVAD: unit not given beside the values; conditions: BJeLR cells, modulatory profile value (AUC)
HT-1080 = experiment: as above; format: cell-based; parameters: AUC, modulator HT.3MA / AUC, modulator HT.ALLN / AUC HT.ATA / AUC HT.ActD / AUC HT.BHA / AUC HT.BHT / AUC HT.BocD / AUC HT.CHX / AUC HT.Co2+ / AUC HT.DPQ / AUC HT.EGTA / AUC HT.Lmim / AUC HT.NAD+ / AUC HT.Nec-1 / AUC HT.SP600125 / AUC HT.TLCK / AUC HT.U0126: unit not given beside the values
[1] = Cobalt (II) binding assay in vitro (absorbance spectrum); conditions: absorbance 300-700 nm
Description: For each cluster I compound (CIL13, −52, and −64), prepared two-fold dilution series with DMSO. We added 30 μL per well of either water or 10 μM cobalt (II) chloride solution to each well of a 384-well plate. Dilution series of each compound in DMSO were added by 10 μL per well. After solutions had been mixed by shaking of the plate using a Victor 3 plate reader (PerkinElmer), absorbance was scanned between 300 and 700 nm for each compound. Finally the following Absorbance value for each compound was plotted (see FIG. 9B):
[formula] where Abs is the absorbance at each wavelength. Search of Commercially Available Structural Analogs of CIL41/70.

HT-1080 cells [2] = experiment: Analysis of lipid ROS generation (C11-BODIPY 581/591 flow cytometry); format: cell-based
Description: Cells were treated with test compounds, trypsinized, pelleted, and washed once with PBS. For lipophilic or aqueous ROS detection, cells were re-suspended in Hanks' Balanced Salt Solution (HBSS; […] Cells were then pelleted, re-suspended in 500 μL HBSS, strained through a 40-μm cell strainer (BD Falcon), and analyzed using a BD Accuri C6 flow cytometer (BD Biosciences). Both dyes were measured in the FL1 channel. Experiments were done in biological triplicates.

HT-1080 cells [3] = experiment: Cell viability assay (Alamar Blue), lethal compounds with or without modulators; format: cell-based
Description: 1,000 cells per 36 μl were seeded in each well in 384-well plates. Lethal compounds were dissolved, and a twofold, 12-point dilution series was prepared in DMSO. Compound solutions were further diluted with media at 1:25, and 4 μl per well of the diluted solutions was added to cell cultures immediately after cells were seeded. […] When other cell-death-modulating compounds (100 nM sodium selenite, 1 μM cerivastatin, 100 μg/mL mevalonic acid) were used in cotreatments, they were supplemented to cell culture for 24 h before lethal compounds were added to cell culture, after which cells were further incubated for 24 h at 37° C. under 5% CO2. On the day of the viability measurement, we added 10 μl per well of 50% Alamar Blue diluted in media (Life Technologies) and further incubated the cells at 37° C. for 6 h. Fluorescence intensity (excitation/emission: 530/590) was measured with a Victor 3 plate reader (PerkinElmer), and the normalized viability was calculated as VL=(IL−I0)/(IV−I0), where VL, I0, IV, and IL are the normalized viability and the raw fluorescence intensities from the wells containing media, cells treated with a vehicle (negative control), and cells with the lethal compound (L), respectively. When the effect of a chemical modulator (M) on L was calculated, we instead used the equation VL|M=(IM,L−I0)/(IM,V−I0), where VL|M, IM,L and IM,V are the normalized viability, and fluorescence intensity from cells treated with […], respectively. The viability was typically measured in biological triplicate unless otherwise specified. A representative dose-response curve, the mean and standard error of normalized viability from one replicate were plotted. […]

GPX4 = experiment: Western blotting of GPX4 protein abundance; format: cell-based, human; conditions: 5 μM FIN56
Description: Seeded 300,000 cells (HT-1080 or BJeLR) per well in six-well plates. For cotreatment, ferroptosis inducers (10 μM erastin for 11 h, 0.5 μM (1S, 3R)-RSL3 for 2 h, or 5 μM FIN56) and 100 μM α-tocopherol were added to cell culture at the same time, and cells were then incubated for 10 h (FIG. 2E). When other death-modulating compounds (100 nM sodium selenite, 1 μM cerivastatin, 100 μg/mL mevalonic acid, 30 μM C75, or 2 μM cerulenin) were used in cotreatments, cells were pre-incubated with the modulators for 24 h before being treated with ferroptosis inducers for 6 h. Cell lysis, SDS-PAGE and protein transfer to PVDF membrane were performed as previously described (Dixon et al. 2012). We used the following antibodies: anti-human α-tubulin (Santa Cruz Biotechnology, sc-32293, 1:10,000 dilution), anti-human GPX4 (Abcam, ab41787, 1:2,000 dilution), anti-human GPX1 (R&D Systems, AF3798, 1:1,000 dilution), and anti-human SQS (Abcam, ab109723 for full-length, ab195046 for truncated, both at 1:1,000 dilution). Secondary antibodies were from LI-COR (1:3,000 dilution). The PVDF membranes labeled with primary and secondary antibodies were scanned using an Odyssey Imaging System (LI-COR). Experiments were performed in biological triplicates, and the mean±s.e. of intensity was plotted.

C(=N\Nc1nc2ccccc2s1)/c1ccccn1 [CIL52]
AUC, modulator BJ.3MA (BJeLR; lethal compound cotreated with modulator 3MA): 0.0119 | AUC, modulator BJ.ALLN (BJeLR; lethal compound cotreated with modulator ALLN): 0.01092 | AUC, modulator BJ.Boc D (BJeLR; lethal compound cotreated with modulator Boc D): 0.0184 | AUC, modulator BJ.CHX (BJeLR; lethal compound cotreated with modulator CHX): 0.03724 | AUC, modulator BJ.Co2+ (BJeLR; lethal compound cotreated with modulator Co2+): 0.7978 | AUC, modulator BJ.DPQ (BJeLR; lethal compound cotreated with modulator DPQ): 0.03648 | AUC, modulator BJ.Gd3+ (BJeLR; lethal compound cotreated with modulator Gd3+): 0.08327 | AUC, modulator BJ.LNAME (BJeLR; lethal compound cotreated with modulator LNAME): −0.01578 | AUC, modulator BJ.Lmin/NAD+ (BJeLR; lethal compound cotreated with modulator Lmin/NAD+): 0.08265 | AUC, modulator BJ.Lmin (BJeLR; lethal compound cotreated with modulator Lmin): 0.007783 | AUC, modulator BJ.NAD+ (BJeLR; lethal compound cotreated with modulator NAD+): 0.09321 | AUC, modulator BJ.NMMA (BJeLR; lethal compound cotreated with modulator NMMA): −0.006118 | AUC, modulator BJ.Nec-1 (BJeLR; lethal compound cotreated with modulator Nec-1): 0.03888 | AUC, modulator BJ.Pepstatin (BJeLR; lethal compound cotreated with modulator Pepstatin): 0.02196 | AUC, modulator BJ.TLCK (BJeLR; lethal compound cotreated with modulator TLCK): 0.284 | AUC HT.ATA (HT-1080; HT-1080, modulator ATA): 0.03417 | AUC HT.ActD (HT-1080; HT-1080, modulator ActD): 0.07379 | AUC HT.BHA (HT-1080; HT-1080, modulator BHA): −0.01302 | AUC HT.BHT (HT-1080; HT-1080, modulator BHT): −0.06719 | AUC HT.BocD (HT-1080; HT-1080, modulator BocD): 0.008582 | AUC HT.CHX (HT-1080; HT-1080, modulator CHX): 0.1474 | AUC HT.Co2+ (HT-1080; HT-1080, modulator Co2+): 0.4155 | AUC HT.CspA (HT-1080; HT-1080, modulator CspA): 0.05641 | AUC HT.DPQ (HT-1080; HT-1080, modulator DPQ): −0.0133 | AUC HT.EGTA (HT-1080; HT-1080, modulator EGTA): 0.09078 | AUC HT.Gd3+ (HT-1080; HT-1080, modulator Gd3+): −0.006922 | AUC HT.LNAME (HT-1080; HT-1080, modulator LNAME): −0.009412 | AUC HT.Lmim (HT-1080; HT-1080, modulator Lmim): 0.02654 | AUC HT.NAD+ (HT-1080; HT-1080, modulator NAD+): 0.01945 | AUC HT.NMMA (HT-1080; HT-1080, modulator NMMA): −0.01196 | HT.atoc (AUC) (HT-1080; HT-1080, modulator atoc): 0.07146 | HT.bCarotene (AUC) (HT-1080; HT-1080, modulator bCarotene): 0.06784 | HT.deferox (AUC) (HT-1080; HT-1080, modulator deferox): 0.2325 | HT.digoxin (AUC) (HT-1080; HT-1080, modulator digoxin): −0.005506 | HT.trolox (AUC) (HT-1080; HT-1080, modulator trolox): −0.03942 | HT.zVAD (AUC) (HT-1080; HT-1080, modulator zVAD): 0.02339 | effect of cobalt (II) on lethality (HT-1080; modulatory profiles, CoCl2 supplementation): inhibited by cobalt (II) | binding to cobalt (II) in vitro [1]: bound to cobalt (II) in vitro

Cc1c(C)c2c(c(C)c1O)CC[C@@](C)(CCC[C@H](C)CCC[C@H](C)CCCC(C)C)O2 [α-tocopherol]
effect on lipid ROS generation after FIN56 treatment (HT-1080 cells [2]): inhibited lipid ROS generation after FIN56 treatment | effect on staurosporine-induced cell death (HT-1080 cells [3]): suppressed staurosporine-induced cell death | effect on FIN56-induced decrease of GPX4 protein abundance (GPX4): not inhibited
